Assay results published in patent publication US7361263B2, “Water treatment apparatus and method” (Sanyo Electric Co., Ltd., priority 2002, dated 2008).
Structures can show the parent of a compound that is named as a salt. Where two headings read alike, the source gives them in different places.

Legend:
[1] = Cytotoxicity (CC50) test, WST-8; assay type: cell-based, human; settings: human; electrolyzing time 0 hours; Molt-4 cells, cultured three days
Excerpt: For the measurement of the number of cells, tetrazolium salt WST-8 (Cell Counting Kit-8 available as a kit) was employed as the chromophone. The basic principle of the cytotoxicity (CC50) test is set forth below. WST-8 is reduced by intracellular dehydrogenation enzyme to produce soluble formazan. Since the number of cells and the amount of generated formazan is linearly proportional, the number of cells can be readily measured by directly measuring the absorbancy of formazan at 450 nm. The specific procedure for measurement is set forth below. 180 μl of a culture medium was introduced into each of the wells in the range of rows A-D and columns 3-10 in a 96-well flat microtiter plate for diluting the agent. 240 μl of the sample taken at 0 hours from initiation of electrolysis was added to the well of row A, column 2 in the microtiter plate. 240 μl of the sample taken 2 hours from initiation of electrolysis was added to the well of row B, column 2. 240 μl of the sample taken 4 hours from initiation of electrolysis was added to the well of row C, column 2. 240 μl of the sample taken 6 hours from initiation of electrolysis was added to the well of row D, column 2. To produce respective columns of sample dilutions, samples of 60 μl each was taken from the above-described samples of 240 μl. These samples of 60 μl were sequentially added to the right side well to be sufficiently pipeted. This was conducted up to column 10. Two of U-bottom 96-well microtiter plates for cultivation were prepared, and 200 μl of PBS was applied to all the side-most wells. 100 μl of culture medium was introduced into each of the wells of rows B-G, columns 2-9. 150 μl of culture medium was introduced into the wells of columns 10 and 11. Then, 50 μl of cell suspension solution prepared to 5×10^6 cell/ml was introduced into each of the wells of rows B-G, columns 2-9 and column 11. The wells of column 10 were absent of cells. […] Then, the O.D. was measured at 450 nm and 620 nm using a microplate reader.

[2] = test system: Escherichia coli (coliform bacillus) NIHJ JC-2; assay: Test of antibacterial activity of epirubicin hydrochloride (MIC, small amount broth dilution); assay type: cell-based; settings: read-out: minimum inhibitory concentration (MIC)
Protocol: (§1) The pharmaceutical stock solution disclosed in the standard method was replaced with the samples of the present example for testing. As the culture medium for measuring sensitivity, Cation Supplemented Mueller-Hinton Broth: CSMHB (obtained from EIKEN CHEMICAL CO., LTD.) was employed. This CSMHB was poured 90 μl each into a U-shaped bottom 96-well microplate. Samples taken 0, 2, 4 and 6 hours from initiation of electrolysis described in the above 2 were prepared. A diluted solution of respective samples was prepared in accordance with the standard method. […] The bacilli used in the present example were identical to the two types of bacillus employed in Example 1, i.e. Staphylococcus aureus (staphylococcus bacteria) FDA […] and Escherichia coli (coliform bacillus) NIHJ JC-2. […] This solution was inoculated approximately 0.005 ml in each well of the plate set forth above within 15 minutes from preparation of the solution including bacillus. A medium not containing the agent was poured into 1-2-wells as the control of the development of bacillus. Cultivation was conducted for 18-24 hours at 35° C.

[3] = test system: Staphylococcus aureus (staphylococcus bacteria) FDA 209P; assay: as above; assay type: cell-based; settings: for MIC: Staphylococcus aureus, FDA209P, read-out: minimum inhibitory concentration (MIC)
Protocol: as §1

[4] = Mutagenicity test (umu-test); assay type: cell-based
Protocol: The test was conducted according to the instruction manual included in the kit of “Umu-test” from Japan Immunoresearch Laboratories Co., Ltd.

- MIC ([2]; NIHJJC2, electrolyzing time 0 hours): > 200 µg/mL
- MIC ([2]; NIHJJC2, electrolyzing time 2 hours): > 200 µg/mL
- MIC ([2]; NIHJJC2, electrolyzing time 4 hours): > 200 µg/mL
- MIC ([2]; NIHJJC2, electrolyzing time 6 hours): > 200 µg/mL
- MIC ([3]; electrolyzing time 0 hours): 1.56 µg/mL
- MIC ([3]; electrolyzing time 2 hours): 25 µg/mL
- MIC ([3]; electrolyzing time 4 hours): > 200 µg/mL
- MIC ([3]; electrolyzing time 6 hours): > 200 µg/mL
- relative MIC value (MIC at 0 hour set as 1) ([3]; electrolyzing time 0 hours): 1
- relative MIC value (MIC at 0 hour set as 1) ([3]; electrolyzing time 2 hours): 1/16
SMILES: COc1cccc2c1C(=O)c1c(O)c3c(c(O)c1C2=O)C[C@@](O)(C(=O)CO)C[C@@H]3O[C@H]1C[C@H](N)[C@@H](O)[C@H](C)O1 [epirubicin hydrochloride]
- CC50 at 3 days [1]: 0.066 µg/mL
- concentration of the tube showing the mutagenicity induction level (fifth tube) ([4]; 0 hours from initiation of electrolysis): 24.7 μ/ml
- umu-test absorbancy of the first tube (O.D.620 nm) ([4]; at all of 0, 2, 4 and 6 hours from initiation of electrolysis): exceeded 0.2
- umu-test result (positivity / negativity) ([4]; at all of 0, 2, 4 and 6 hours from initiation of electrolysis, cut off value approximately 0.18): positivity
- mutagenicity after the electrolytic process relative to before ([4]; lines diluted by three times, 1/3^4): 1/81
